Assay results as given in patent publication US4826814A, “Tripeptide derivatives” (Dainippon Pharmaceutical Co., Ltd., priority 1986, dated 1989).
Starred links: 1 amine or outer side, 2 acyl side, 3 side chain; linkers in the order of their positions; H or OH if unused. Non-standard residues stand in square brackets, D forms with d. Residues, ends and D or L forms follow the SMILES beside them. *: point of attachment. d(γGlu) = O=C(O)[C@@H](CCC(=O)[*:2])N[*:1]; Oic = O=C(O)[C@@H]1C[C@@H]2CCCC[C@@H]2N1; Orn = NCCC[C@H](N)C(=O)O; Cbz = O=C(OCc1ccccc1)*; Bz = O=C(c1ccccc1)*

Each compound was assayed against T1, ACE preparation (rabbit lung) (Oryctolagus cuniculus, UniProt P12822) (assay: In vitro ACE inhibitory activity (hippuryl-L-histidyl-L-leucine substrate)). Conditions: 37° C., 30 minutes, pH 8.3.
T1 construct: an ACE preparation (rabbit lung); from tissue; host or cells: rabbit lung
T1 sequence (P12822 34-1310): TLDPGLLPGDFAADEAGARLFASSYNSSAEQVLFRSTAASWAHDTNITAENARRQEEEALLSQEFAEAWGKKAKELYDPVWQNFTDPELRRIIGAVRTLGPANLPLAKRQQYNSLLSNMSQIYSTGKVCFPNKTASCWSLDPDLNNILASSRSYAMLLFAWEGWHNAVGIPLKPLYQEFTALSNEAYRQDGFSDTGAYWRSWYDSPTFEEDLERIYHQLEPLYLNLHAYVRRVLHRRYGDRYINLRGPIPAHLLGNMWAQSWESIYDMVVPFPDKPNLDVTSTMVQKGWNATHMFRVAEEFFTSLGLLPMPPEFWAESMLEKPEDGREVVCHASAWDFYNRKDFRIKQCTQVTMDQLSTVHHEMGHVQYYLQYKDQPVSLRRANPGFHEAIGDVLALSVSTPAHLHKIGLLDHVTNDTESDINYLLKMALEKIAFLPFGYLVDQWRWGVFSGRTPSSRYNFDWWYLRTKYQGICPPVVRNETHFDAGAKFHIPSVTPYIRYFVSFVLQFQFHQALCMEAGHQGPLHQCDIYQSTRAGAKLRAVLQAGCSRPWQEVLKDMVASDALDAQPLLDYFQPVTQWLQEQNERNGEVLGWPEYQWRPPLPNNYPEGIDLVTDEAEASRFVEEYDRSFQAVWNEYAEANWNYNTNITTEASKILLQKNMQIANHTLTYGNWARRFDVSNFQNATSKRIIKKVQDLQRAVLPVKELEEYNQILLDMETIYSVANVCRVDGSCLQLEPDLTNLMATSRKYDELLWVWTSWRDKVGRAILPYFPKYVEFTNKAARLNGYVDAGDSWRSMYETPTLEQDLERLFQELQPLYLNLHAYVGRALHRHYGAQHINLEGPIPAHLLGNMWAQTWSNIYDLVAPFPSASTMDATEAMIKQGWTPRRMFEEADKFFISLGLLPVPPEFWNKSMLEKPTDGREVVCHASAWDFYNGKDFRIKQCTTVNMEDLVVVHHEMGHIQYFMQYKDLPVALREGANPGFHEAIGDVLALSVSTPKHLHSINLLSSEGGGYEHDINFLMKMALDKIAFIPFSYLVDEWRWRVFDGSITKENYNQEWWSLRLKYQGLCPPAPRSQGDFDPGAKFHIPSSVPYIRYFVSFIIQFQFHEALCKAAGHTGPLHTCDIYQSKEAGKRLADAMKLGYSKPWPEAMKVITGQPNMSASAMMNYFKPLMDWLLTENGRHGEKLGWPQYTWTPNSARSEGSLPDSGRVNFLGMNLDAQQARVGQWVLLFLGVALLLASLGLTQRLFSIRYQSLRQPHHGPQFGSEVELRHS
Format: biochemical
Method: The assay medium contained an ACE preparation (rabbit lung), synthetic substrate (hippuryl-L-histidyl-L-leucine 5 mM), NaCl (300 mM) and phosphate buffer (100 mM, pH 8.3). It was mixed to a final volume of 0.300 ml and incubated at 37° C. for 30 minutes in the presence or absence of test compounds. After the reaction was terminated by adding 300 μl of 1N HCl, hippuric acid formed was extracted with 2 volume of ethyl acetate. After ethyl acetate was evaporated and distilled water was added, the hippuric acid was determined from its absorbance at 228 nm by spectrophotometer (Hitachi 100-41).
The degree of ACE inhibition was calculated from activities with and without test compounds. The IC50 value (molar concentration required for the 50% inhibition of ACE activity) was obtained from a dose-inhibition curve.

| SMILES | IC50 [nM] |
| --- | --- |
| NCCCC[C@H](NC(=O)OC1CCC1)C(=O)N[C@H](CCC(=O)N1c2ccccc2C[C@H]1C(=O)O)C(=O)O [Example 33, 1-(N^2 -Cyclobutyloxycarbonyl-L-lysyl-gamma-D-glutamyl)indoline-2(S)-carboxylic acid] | 14 |
| NCCCC[C@H](NC(=O)OCCc1ccccc1)C(=O)N[C@H](CCC(=O)N1c2ccccc2C[C@H]1C(=O)O)C(=O)O [Example 3, 1-(N^2 -Phenethyloxycarbonyl-L-lysyl-gamma-D-glutamyl)indoline-2(S)-carboxylic acid] | 13 |
| NCCC[C@H](NC(=O)OCc1ccccc1)C(=O)N[C@H](CCC(=O)N1[C@H](C(=O)O)C[C@@H]2CCCC[C@@H]21)C(=O)O [Example 14, (2S,3aS,7aS)-1-(N^2 -Benzyloxycarbonyl-L-ornithinyl-gamma-D-glutamyl)octahydro-1H-indole-2-carboxylic acid] (Cbz-[Orn]-[d(γGlu)]-[Oic]-OH) | 4.9 |
| NCCCC[C@H](NC(=O)c1ccccc1)C(=O)N[C@H](CCC(=O)N1[C@H](C(=O)O)C[C@@H]2CCCC[C@@H]21)C(=O)O [Example 27, (2S,3aS,7aS)-1-(N^2 -Benzoyl-L-lysyl-gamma-D-glutamyl)octahydro-1H-indole-2-carboxylic acid] (Bz-Lys-[d(γGlu)]-[Oic]-OH) | 5.4 |
| NCCCC[C@H](NC(=O)[C@@H]1CCCN1)C(=O)N[C@H](CCC(=O)N1c2ccccc2C[C@H]1C(=O)O)C(=O)O [Example 9, 1-(L-prolyl-L-lysyl-gamma-D-glutamyl)indoline-2(S)-carboxylic acid] | 36 |
| NCCCC[C@H](NC(=O)OC1CCCCC1)C(=O)N[C@H](CCC(=O)N1c2ccccc2C[C@H]1C(=O)O)C(=O)O [Example 4, 1-(N^2 -Cyclohexyloxycarbonyl-L-lysyl-gamma-D-glutamyl)indoline-2(S)-carboxylic acid] | 8.4 |
| COc1ccc(CCOC(=O)N[C@@H](CCCCN)C(=O)N[C@H](CCC(=O)N2c3ccccc3C[C@H]2C(=O)O)C(=O)O)cc1 [Example 28, 1-[N^2-(4-Methoxyphenylethoxycarbonyl)-L-lysyl-gamma-D-glutamyl]indoline-2(S)-carboxylic acid] | 11 |
| NCCCC[C@H](NC(=O)OC1CCCCC1)C(=O)N[C@H](CCC(=O)N1[C@H](C(=O)O)C[C@@H]2CCCC[C@@H]21)C(=O)O [Example 31, (2S,3aS,7aS)-1-(N^2 -Cyclohexyloxycarbonyl-L-lysyl-gamma-D-glutamyl)octahydro-1H-indole-2-carboxylic acid] | 5 |
| NCCCC[C@H](NC(=O)OCc1ccccc1)C(=O)N[C@H](CCC(=O)N1c2ccccc2C[C@H]1C(=O)O)C(=O)O [Example 1, 1-(N^2 -Benzyloxycarbonyl-L-lysyl-gamma-D-glutamyl)indoline-2(S)-carboxylic acid] | 5.6 |
| NCCCC[C@H](NC(=O)[C@H]1CCCN1)C(=O)N[C@H](CCC(=O)N1c2ccccc2C[C@H]1C(=O)O)C(=O)O [Example 17, 1-(D-Prolyl-L-lysyl-gamma-D-glutamyl)indoline-2(S)-carboxylic acid] | 21 |
| NCCCC[C@H](NC(=O)OCCC1CCCCC1)C(=O)N[C@H](CCC(=O)N1c2ccccc2C[C@H]1C(=O)O)C(=O)O [Example 34, 1-(N^2 -Cyclohexylethoxycarbonyl-L-lysyl-gamma-D-glutamyl)indoline-2(S)-carboxylic acid] | 8 |
| NCCCC[C@H](NC(=O)OCCc1ccccc1)C(=O)N[C@H](CCC(=O)N1[C@H](C(=O)O)C[C@@H]2CCCC[C@@H]21)C(=O)O [Example 26, (2S,3aS,7aS)-1-[N^2 -Phenethyloxycarbonyl-L-lysyl-gamma-D-glutamyl]octahydro-1H-indole-2-carboxylic acid] | 4.6 |
| NCCCC[C@H](NC(=O)C1CCC1)C(=O)N[C@H](CCC(=O)N1c2ccccc2C[C@H]1C(=O)O)C(=O)O [Example 36, 1-(N^2 -Cyclobutanecarbonyl-L-lysyl-gamma-D-glutamyl)-indoline-2(S)-carboxylic acid] | 22 |
| NCCCC[C@H](NC(=O)c1ccco1)C(=O)N[C@H](CCC(=O)N1c2ccccc2C[C@H]1C(=O)O)C(=O)O [Example 8, 1-[N^2-(2-Furoyl)-L-lysyl-gamma-D-glutamyl]indoline-2(S)-carboxylic acid] | 23 |

Continued, values first:

| IC50 [nM] | SMILES |
| --- | --- |
| 6.2 | NCCCC[C@H](NC(=O)c1ccc(Cl)cc1)C(=O)N[C@H](CCC(=O)N1[C@H](C(=O)O)C[C@@H]2CCCC[C@@H]21)C(=O)O [Example 55, (2S,3aS,7aS)-1-[N^2-(4-Chlorobenzoyl)-L-lysyl-gamma-D-glutamyl]octahydro-1H-indole-2-carboxylic acid] |
| 4.5 | NCCCC[C@H](NC(=O)c1cccs1)C(=O)N[C@H](CCC(=O)N1[C@H](C(=O)O)C[C@@H]2CCCC[C@@H]21)C(=O)O [Example 52, (2S,3aS,7aS)-1-[N^2-(2-Thiophenecarbonyl)-L-lysyl-gamma-D-glutamyl]octahydro-1H-indole-2-carboxylic acid] |
| 8.2 | NCCCC[C@H](NC(=O)[C@@H]1Cc2ccccc2N1)C(=O)N[C@H](CCC(=O)N1[C@H](C(=O)O)C[C@@H]2CCCC[C@@H]21)C(=O)O [Example 56, (2S,3aS,7aS)-1-[N^2-(Indoline-2(S)-carbonyl)-L-lysyl-gamma-D-glutamyl]octahydro-1H-indole-2-carboxylic acid] |
| 27 | NCCCC[C@H](NC(=O)C1CCCCC1)C(=O)N[C@H](CCC(=O)N1c2ccccc2C[C@H]1C(=O)O)C(=O)O [Example 71, 1-(N^2 -Cyclohexylcarbonyl-L-lysyl-gamma-D-glutamyl)indoline-2(S)-carboxylic acid] |
| 11 | NCCCC[C@H](NC(=O)c1ccccc1)C(=O)N[C@H](CCC(=O)N1c2ccccc2C[C@H]1C(=O)O)C(=O)O [Example 39, 1-(N^2 -Benzoyl-L-lysyl-gamma-D-glutamyl)indoline-2(S)-carboxylic acid] |
| 5.4 | COc1ccccc1C(=O)N[C@@H](CCCCN)C(=O)N[C@H](CCC(=O)N1[C@H](C(=O)O)C[C@@H]2CCCC[C@@H]21)C(=O)O [Example 70, (2S,3aS,7aS)-1-[N^2-(2-Methoxybenzoyl)-L-lysyl-gamma-D-glutamyl]octahydro-1H-indole-2-carboxylic acid] |
| 16 | NCCCC[C@H](NC(=O)c1cnccn1)C(=O)N[C@H](CCC(=O)N1c2ccccc2C[C@H]1C(=O)O)C(=O)O [Example 68, 1-(N^2 -Pyrazinoyl-L-lysyl-gamma-D-glutamyl)indoline-2(S)-carboxylic acid] |
| 5.9 | NCCCC[C@H](NC(=O)c1cccnc1Cl)C(=O)N[C@H](CCC(=O)N1[C@H](C(=O)O)C[C@@H]2CCCC[C@@H]21)C(=O)O [Example 54, (2S,3aS,7aS)-1-[N^2-(2-Chloronicotinoyl)-L-lysyl-gamma-D-glutamyl]octahydro-1H-indole-2-carboxylic acid] |
| 6.6 | NCCCC[C@H](NC(=O)OCc1ccc2c(c1)OCO2)C(=O)N[C@H](CCC(=O)N1c2ccccc2C[C@H]1C(=O)O)C(=O)O [Example 74, 1-[N^2-(3,4-Methylenedioxybenzyloxycarbonyl)-L-lysyl-gamma-D-glutamyl]indoline-2(S)-carboxylic acid] |
